# Earlier results as cited in patent US20240164375A1, “LIQUID DISINFECTANT COMPOSITION AND USE THEREOF” (HYPRED, priority 2002, published 2024).
# Details: 25° C.
smiles,measurement,value
CCCCCCCC(=O)O [octanoic acid],pKa,4.85
